{"source": "patent US8304427B2", "about": "“Acylthiourea compound or salt thereof, and use thereof” (Taiho Pharmaceutical Co., Ltd., priority 2008, dated 2012)", "key": {"[1]": {"experiment": "Dose determination study (body weight change, maximum tolerated dose)", "assay_type": "in vivo", "details": "nude mice, peroral", "protocol": "[…]. The maximum tolerated dose was calculated based on the change in body weight of the mice.\nDuring the administration period, percent body weight change of mice (BWC %) was calculated. […] Thus, the half value of the toxicity expression dose was decided as a maximum tolerated dose.\nBWC of mice was calculated by the following equation, and the change in mean BWC of each group during the administration period is shown in FIG. 1. BWC(%)=([(body weight of mouse on the day of weight measurement)−(body weight of mouse at grouping)]/(body weight of mouse at grouping))×100"}, "[2]": {"test_system": "HAOSMC (human aortic smooth muscle cell)", "experiment": "Cell proliferation inhibition test against normal cells HAOSMC", "assay_type": "cell-based", "details": "for IC50: Homo sapiens, 72 h, read-out: IC50 HAOSMC; for ratio HAOSMC: IC50 HAOSMC relative to IC50 NUGC4", "protocol": "[Worded in the source for another cell line; this cell line is reported under the same test.] (§1) The thus-prepared test compound solution was added to each well of the NUGC4 cell culture plate at 0.1 mL/well, and the plate was incubated in an incubator under 5% CO2 gas atmosphere at 37° C. for 3 days. […] Thereafter, the plate was washed with tap water and dried. Then, aqueous 0.05% Crystal Violet/20% methanol solution (product of Wako Pure Chemical Industries Ltd.) was added to each well at 100 μL/well, and the plate was left to stand at room temperature for 20 minutes, whereby cells were stained. Thereafter, the plate was washed with tap water and dried. To each well, 0.05 M NaH2PO4/ethanol (1/1=v/v) (100 μL) was added, to thereby extract Crystal Violet. The absorbance of the extracted Crystal Violet was measured at 540 nm using a microplate reader, and the absorbance was employed as an index for living cell count. […] Percent inhibition (%)=(C−T)/C×100 • T: Absorbance of well to which a test compound was added • C: Absorbance of well to which no test compound was added"}, "NUGC4 cells": {"test_system": "NUGC4 cells", "experiment": "Cell-proliferation inhibitory assay against NUGC4 cells (Crystal Violet)", "assay_type": "cell-based", "details": "Homo sapiens, NUGC-4, 72 h; NUGC4, cancer, c-Met status (+), 3 days", "protocol": "Cell-Proliferation Inhibitory Assay Against NUGC4 Cells (Human Gastric Cancer Cell Strain in Which c-Met is Over-Expressed and Highly Activated), In Vitro Test\nNUGC4 cell suspension (in a 10% FBS-containing RPMI 1640 medium (product of Wako Pure Chemical Industries Ltd.) or a FBS-containing DMEM medium (product of Nacalai Tesque, Inc.)) was inoculated to each well of a 96-well (flat-bottom) microplate in an amount of 2×10^3 cells (0.1 mL), and the plate was incubated in an incubator under 5% CO2 gas atmosphere at 37° C. for one day. Each of the compounds of the present invention and comparative compound 1 was dissolved in dimethyl sulfoxide to a concentration of 30 mM. The solution was diluted with 10% FBS-containing RPMI 1640 or DMEM medium, to a final test compound concentration of 60, 20, 6, 2, 0.6, or 0.2 μM. The thus-prepared test compound solution was added to each well of the NUGC4 cell culture plate at 0.1 mL/well, and the plate was incubated in an incubator under 5% CO2 gas atmosphere at 37° C. for 3 days. After culturing, 25% aqueous glutaraldehyde solution (product of Nacalai Tesque, Inc.) was added to each well at 20 μL, and the plate was left to stand at room temperature for 20 minutes, whereby cells were fixed. Thereafter, the plate was washed with tap water and dried. Then, aqueous 0.05% Crystal Violet/20% methanol solution (product of Wako Pure Chemical Industries Ltd.) was added to each well at 100 μL/well, and the plate was left to stand at room temperature for 20 minutes, whereby cells were stained. Thereafter, the plate was washed with tap water and dried. To each well, 0.05 M NaH2PO4/ethanol (1/1=v/v) (100 μL) was added, to thereby extract Crystal Violet. The absorbance of the extracted Crystal Violet was measured at 540 nm using a microplate reader, and the absorbance was employed as an index for living cell count. Percent inhibition was calculated by the following equation, and the 50% inhibition test compound concentration (IC50 (μM)) was calculated. Percent inhibition (%)=(C−T)/C×100 • T: Absorbance of well to which a test compound was added • C: Absorbance of well to which no test compound was added"}, "[3]": {"test_system": "HMEC (human skin microvascular endothelial cell)", "experiment": "Cell proliferation inhibition test against normal cells HMEC", "assay_type": "cell-based", "details": "for IC50: Homo sapiens, HMEC, 72 h, read-out: IC50 HMEC; for ratio HMEC: IC50 HMEC relative to IC50 NUGC4", "protocol": "[Worded in the source for another cell line; this cell line is reported under the same test.] as §1"}, "HCT-116": {"test_system": "HCT-116", "experiment": "Cell proliferation inhibition test against c-Met low expressing tumor cells (HCT-116)", "assay_type": "cell-based", "details": "for IC50: Homo sapiens; for ratio HCT-116: IC50 HCT-116 relative to IC50 NUGC4"}, "c-Met": {"biological_target": "c-Met (Homo sapiens, UniProt P08581)", "sequence (P08581 956-1390 limits assumed)": "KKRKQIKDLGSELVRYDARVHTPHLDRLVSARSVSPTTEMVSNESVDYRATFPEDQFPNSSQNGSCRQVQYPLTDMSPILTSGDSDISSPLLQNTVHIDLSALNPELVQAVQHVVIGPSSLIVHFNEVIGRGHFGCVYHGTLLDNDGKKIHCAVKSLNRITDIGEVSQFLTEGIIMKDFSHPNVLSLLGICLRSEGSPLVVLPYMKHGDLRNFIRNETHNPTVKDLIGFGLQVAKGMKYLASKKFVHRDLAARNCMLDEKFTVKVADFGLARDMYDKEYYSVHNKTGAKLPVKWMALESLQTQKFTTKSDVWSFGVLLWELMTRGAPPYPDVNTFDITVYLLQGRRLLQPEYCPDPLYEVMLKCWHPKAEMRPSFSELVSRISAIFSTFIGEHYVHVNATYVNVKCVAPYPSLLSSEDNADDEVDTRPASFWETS", "experiment": "c-Met inhibitory assay using AlphaScreen (Method A)", "assay_type": "biochemical", "parameters": "purchased Carna bio Co., Ltd 08-051", "details": "ATP 20 μM", "protocol": "Inhibitory activity of compounds against c-Met kinase was determined through the following procedures. Method A) c-Met inhibitory assay using AlphaScreen™\nA biotinylated peptide including a phosphorylated site of Pyk2 (Tyr402), which is reported as a bio-substrate in Clin. Cancer Res. vol. […] The mixture was allowed to react at room temperature for 20 minutes. EDTA was added to the reaction mixture to a final concentration of 50 mM, to thereby terminate reaction. […] The reaction was done for one hour at room temperature. Thereafter, the fluorescence intensity from the reaction mixture was measured using a multi-label counter (EnVision™, Perkin Elmer)."}, "[4]": {"details": "HCT-116, 72 h, read-out: IC50 HCT-116"}, "[5]": {"details": "HAOSMC, normal, c-Met status (−), 3 days"}, "[6]": {"details": "normal, c-Met status (−), 3 days"}, "[7]": {"details": "72 h, HCT-116, cancer, c-Met status (−), 3 days, read-out: IC50 HCT-116"}}, "note": "Read-outs that look alike come from different tables or passages of the source."}
{"smiles": "COc1cc2nccc(Oc3ccc(NC(=S)NC(=O)Cc4ccccc4)cc3F)c2cc1OC", "note": "[Comp. Ex. 1, reference compound]", "values": [{"measurement": "MTD at 14 days", "setting": "[1]; mouse, in vivo, oral, half value of the toxicity expression dose", "value": 100, "unit": "mg/kg"}, {"measurement": "toxicity expression dose", "setting": "[1]; 14 days, dose with ≧10% reduction in mean BWC", "value": 200, "unit": "mg/kg"}, {"measurement": "body weight change", "setting": "[1]; once a day, 14 days, 100 mg/kg", "value": "no decrease in body weight was observed"}, {"measurement": "decrease in BWC", "setting": "[1]; once a day, 14 days, 200 mg/kg", "value": "> 10", "unit": "%"}, {"measurement": "IC50", "setting": "[2]", "value": 24, "unit": "µM"}, {"measurement": "IC50", "setting": "NUGC4 cells", "value": 0.2, "unit": "µM"}, {"measurement": "IC50", "setting": "[3]", "value": 15, "unit": "µM"}, {"measurement": "IC50", "setting": "HCT-116; [4]", "value": 17, "unit": "µM"}, {"measurement": "IC50", "setting": "HCT-116; HCT-116, read-out: IC50 to c-Met low expressing and normal cell strains", "value": "15 to 24", "unit": "µM"}]}
{"smiles": "COc1cc2nccc(Oc3ccc(NC(=S)NC(=O)Cc4ccc(F)cc4)cc3F)c2cc1C(=O)NC1CCCCNC1=O", "note": "(stereo not shown) [Example 19, 4-(2-Fluoro-4-(3-(2-(4-fluorophenyl)acetyl)thioureido)phenoxy)-7-methoxy-N-(2-oxoazepan-3-yl)quinoline-6-carboxamide]", "values": [{"measurement": "IC50", "setting": "c-Met", "value": 0.338, "unit": "µM"}, {"measurement": "IC50", "setting": "[2]; [5]", "value": "> 30", "unit": "µM"}, {"measurement": "ratio HAOSMC", "setting": "[2]", "value": ">3000"}, {"measurement": "IC50", "setting": "NUGC4 cells", "value": 0.01, "unit": "µM"}, {"measurement": "IC50", "setting": "[3]; [6]", "value": 18, "unit": "µM"}, {"measurement": "ratio HMEC", "setting": "[3]", "value": 3000}, {"measurement": "IC50", "setting": "HCT-116; [7]", "value": "> 30", "unit": "µM"}, {"measurement": "ratio HCT-116", "setting": "HCT-116", "value": ">3000"}]}
{"smiles": "COc1cc2nccc(Oc3ccc(NC(=S)NC(=O)Cc4ccccc4)cc3F)c2cc1C(=O)NCC(=O)N1CCOCC1", "note": "[Example 21, 4-(2-Fluoro-4-(3-(2-phenylacetyl)thioureido)phenoxy)-7-methoxy-N-(2-morpholino-2-oxoethyl)quinoline-6-carboxamide]", "values": [{"measurement": "IC50", "setting": "c-Met", "value": 0.118, "unit": "µM"}, {"measurement": "IC50", "setting": "[2]; [5]", "value": "> 30", "unit": "µM"}, {"measurement": "ratio HAOSMC", "setting": "[2]", "value": ">3000"}, {"measurement": "IC50", "setting": "NUGC4 cells", "value": 0.01, "unit": "µM"}, {"measurement": "IC50", "setting": "[3]; [6]", "value": 5, "unit": "µM"}, {"measurement": "ratio HMEC", "setting": "[3]", "value": 3000}, {"measurement": "IC50", "setting": "HCT-116; [7]", "value": "> 30", "unit": "µM"}, {"measurement": "ratio HCT-116", "setting": "HCT-116", "value": ">3000"}]}
{"smiles": "COc1cc2nccc(Oc3ccc(NC(=S)NC(=O)Cc4ccccc4)cc3F)c2cc1C(=O)NCC(=O)N(C)C", "note": "[Example 22, N-(2-(Dimethylamino)-2-oxoethyl)-4-(2-fluoro-4-(3-(2-phenylacetyl)thioureido)phenoxy)-7-methoxyquinoline-6-carboxamide]", "values": [{"measurement": "IC50", "setting": "c-Met", "value": 0.25, "unit": "µM"}, {"measurement": "IC50", "setting": "[2]; [5]", "value": "> 30", "unit": "µM"}, {"measurement": "ratio HAOSMC", "setting": "[2]", "value": ">3000"}, {"measurement": "IC50", "setting": "NUGC4 cells", "value": 0.01, "unit": "µM"}, {"measurement": "IC50", "setting": "[3]; [6]", "value": "> 30", "unit": "µM"}, {"measurement": "ratio HMEC", "setting": "[3]", "value": ">3000"}, {"measurement": "IC50", "setting": "HCT-116; [7]", "value": "> 30", "unit": "µM"}, {"measurement": "ratio HCT-116", "setting": "HCT-116", "value": ">3000"}]}
{"smiles": "COc1cc2nccc(Oc3ccc(NC(=S)NC(=O)Cc4ccccc4)cc3F)c2cc1C(=O)NCC(C)(C)O", "note": "[Example 24, 4-(2-Fluoro-4-(3-(2-phenylacetyl)thioureido)phenoxy)-N-(2-hydroxy-2-methylpropyl)-7-methoxyquinoline-6-carboxamide]", "values": [{"measurement": "IC50", "setting": "c-Met", "value": 0.033, "unit": "µM"}, {"measurement": "IC50", "setting": "[2]", "value": "> 30", "unit": "µM"}, {"measurement": "ratio HAOSMC", "setting": "[2]", "value": ">1552"}, {"measurement": "IC50", "setting": "NUGC4 cells", "value": 0.02, "unit": "µM"}, {"measurement": "IC50", "setting": "[3]", "value": 16, "unit": "µM"}, {"measurement": "ratio HMEC", "setting": "[3]", "value": 1552}, {"measurement": "IC50", "setting": "HCT-116; [4]", "value": 23, "unit": "µM"}, {"measurement": "ratio HCT-116", "setting": "HCT-116", "value": 1181}]}
{"smiles": "COc1cc2nccc(Oc3ccc(NC(=S)NC(=O)Cc4ccccc4)cc3F)c2cc1C(=O)NCCS(C)(=O)=O", "note": "[Example 27, 4-(2-Fluoro-4-(3-(2-phenylacetyl)thioureido)phenoxy)-7-methoxy-N-(2-(methylsulfonyl)ethyl)quinoline-6-carboxamide]", "values": [{"measurement": "IC50", "setting": "c-Met", "value": 0.059, "unit": "µM"}, {"measurement": "IC50", "setting": "[2]; [5]", "value": "> 30", "unit": "µM"}, {"measurement": "ratio HAOSMC", "setting": "[2]", "value": ">1893"}, {"measurement": "IC50", "setting": "NUGC4 cells", "value": 0.02, "unit": "µM"}, {"measurement": "IC50", "setting": "[3]; [6]", "value": 14, "unit": "µM"}, {"measurement": "ratio HMEC", "setting": "[3]", "value": 1894}, {"measurement": "IC50", "setting": "HCT-116; [7]", "value": 11, "unit": "µM"}, {"measurement": "ratio HCT-116", "setting": "HCT-116", "value": 714}]}
